Laboratory results: patent publication US8609669B2, “Potassium channel modulators” (AbbVie Inc., priority 2010, dated 2013)

Target: T1, KCNQ 2/3 channels (HEK293 cells stably expressing human KCNQ2 and KCNQ3 subunits) (Homo sapiens, UniProt O43525+O43526)
T1 construct: expressed in transfected cells; host or cells: HEK293
Experiment: KCNQ2/3 channel activation, thallium flux FLIPR assay (BTC-AM dye)
Format: cell-based
Conditions: for Emax: HEK293, maximum response relative to response of retigabine at 10 μM (set at 100%), read-out: Max. %; for EC50: HEK293 cells expressing human KCNQ2 and KCNQ3, FLIPR thallium flux
Procedure: The following example describes the assay that can be used to identify compounds that activate KCNQ 2/3 channels.
HEK293 cells stably expressing human KCNQ2 and KCNQ3 subunits were seeded in 96-well, black-walled, clear-bottomed, poly-D-lysine coated plates (BD Biosciences, Bedford, Mass.) at a density of 1×10^5 cells per well 24 hours before the assay. On the assay day, BTC-AM dye (Invitrogen, Carlsbad, Calif.) was loaded into the cells by replacing the cell culture medium with 100 μL/well of 4 μM dye in DPBS. Dye loading was allowed to proceed for 2 hours at room temperature and then cells were washed twice in 100 μL/well of assay buffer (in mM: 10 HEPES pH 7.3, 5 glucose, 140 Na-gluconate, 2.5 K-gluconate, 3.6 Ca-gluconate, 2 MgSO4, 0.1 Ouabain) to remove unloaded dye. Cells were incubated in 50 μL of assay buffer before loading onto a FLIPR system (Molecular Devices, Sunnyvale, Calif.). Various concentrations of compounds to be assayed were added to the cells in 50 μL of assay buffer and incubated for 4 minutes. The fluorescence signal was initiated by adding 100 μL of assay buffer containing 6 mM TlNO3 and 10 mM K2SO4. Fluors were excited using the 488-nm line of an argon laser and emission was filtered using a 540±30 nm bandpass filter. Fluorescent signals were recorded for 3 minutes. Responses over baseline values were plotted versus concentrations of test compounds to obtain an EC50 value. The maximum response for each test compound was determined relative to the response produced at 10 μM by retigabine. The maximum response of retigabine at 10 μM was set at 100%.

Row | Emax [%] | EC50 [nM] | Structure (SMILES)
1 | 191 | 100 to 500 | Cc1cc(C)n2nc(NC(=O)CCc3ccccc3)c(CC(C)(C)C)c2n1 [Example 15, N-[3-(2,2-dimethylpropyl)-5,7-dimethylpyrazolo[1,5-a]pyrimidin-2-yl]-3-phenylpropanamide]
2 | 8 | > 10000 | O=C(Nc1nn2cccnc2c1-c1ccc(Cl)cc1)NC1CCCCC1 [Example 108, 1-[3-(4-chlorophenyl)pyrazolo[1,5-a]pyrimidin-2-yl]-3-cyclohexylurea]
3 | 8 | > 10000 | COC(=O)c1c(NC(=O)CCC2CCCC2)nn2cccnc12 [Example 125, methyl 2-[(3-cyclopentylpropanoyl)amino]pyrazolo[1,5-a]pyrimidine-3-carboxylate]
4 | 8 | > 10000 | O=C(Cc1cccnc1)Nc1nn2cccnc2c1-c1ccc(Cl)cc1 [Example 101, N-[3-(4-chlorophenyl)pyrazolo[1,5-a]pyrimidin-2-yl]-2-(pyridin-3-yl)acetamide]
5 | 182 | < 100 | Cc1cc(C)n2nc(NC(=O)CCC3CCCCC3)c(CC(C)(C)C)c2n1 [Example 14, 3-cyclohexyl-N-[3-(2,2-dimethylpropyl)-5,7-dimethylpyrazolo[1,5-a]pyrimidin-2-yl]propanamide]
6 | 137 | 100 to 500 | O=C(CCC1CCCCC1)Nc1nn2cccnc2c1-c1ccc(F)cc1 [Example 24, 3-cyclohexyl-N-[3-(4-fluorophenyl)pyrazolo[1,5-a]pyrimidin-2-yl]propanamide]
7 | 11 | > 10000 | Cc1cc(C)n2nc(NC(=O)COC3CCCC3)c(-c3ccc(Cl)c(C)c3)c2n1 [Example 134, N-[3-(4-chloro-3-methylphenyl)-5,7-dimethylpyrazolo[1,5-a]pyrimidin-2-yl]-2-(cyclopentyloxy)acetamide]
8 | 139 | 1000 to 10000 | Cc1ccnc2c(-c3ccc(Cl)cc3)c(NC(=O)CC(C)(C)C)nn12 [Example 40, N-[3-(4-chlorophenyl)-7-methylpyrazolo[1,5-a]pyrimidin-2-yl]-3,3-dimethylbutanamide]
9 | 160 | > 10000 | COc1ccc(CC(=O)Nc2nn3c(C)ccnc3c2CC(C)(C)C)cc1 [Example 36, N-[3-(2,2-dimethylpropyl)-7-methylpyrazolo[1,5-a]pyrimidin-2-yl]-2-(4-methoxyphenyl)acetamide]
10 | 64 | > 10000 | CC(C)(CC(=O)Nc1nn2cccnc2c1-c1ccc(Cl)cc1)c1ccccc1 [Example 117, N-[3-(4-chlorophenyl)pyrazolo[1,5-a]pyrimidin-2-yl]-3-methyl-3-phenylbutanamide]
11 | 94 | 100 to 500 | CC(C)(C)c1c(NC(=O)CC23CC4CC(CC(C4)C2)C3)nn2cccnc12 [Example 107, 2-(adamantan-1-yl)-N-(3-tert-butylpyrazolo[1,5-a]pyrimidin-2-yl)acetamide]
12 | 126 | 500 to 1000 | Cc1cnc2c(-c3ccc(F)c(C)c3)c(NC(=O)CCC(C)(C)C)nn2c1 [Example 164, N-[3-(4-fluoro-3-methylphenyl)-6-methylpyrazolo[1,5-a]pyrimidin-2-yl]-4,4-dimethylpentanamide]

More lines, now with the values behind:

Row | Structure (SMILES) | Emax [%] | EC50 [nM]
13 | Cc1cnc2c(-c3ccc(F)c(C)c3)c(NC(=O)CSC3CCCC3)nn2c1 [Example 143, 2-(cyclopentylthio)-N-[3-(4-fluoro-3-methylphenyl)-6-methylpyrazolo[1,5-a]pyrimidin-2-yl]acetamide] | 162 | 100 to 500
14 | COc1cc(CC(=O)Nc2nn3cccnc3c2-c2cccc(F)c2)cc(OC)c1 [Example 138, 2-(3,5-dimethoxyphenyl)-N-[3-(3-fluorophenyl)pyrazolo[1,5-a]pyrimidin-2-yl]acetamide] | 11 | > 10000
15 | Cc1cnc2c(-c3ccccc3)c(NC(=O)Cc3ccc(Cl)cc3)nn2c1 [Example 93, 2-(4-chlorophenyl)-N-(6-methyl-3-phenylpyrazolo[1,5-a]pyrimidin-2-yl)acetamide] | 131 | 100 to 500
16 | COc1ccc(CC(=O)Nc2nn3c(C)ccnc3c2-c2ccc(C(F)(F)F)cc2)cc1 [Example 80, 2-(4-methoxyphenyl)-N-{7-methyl-3-[4-(trifluoromethyl)phenyl]pyrazolo[1,5-a]pyrimidin-2-yl}acetamide] | 59 | > 10000
17 | O=C(Cc1ccccn1)Nc1nn2cccnc2c1-c1ccc(Cl)cc1 [Example 100, N-[3-(4-chlorophenyl)pyrazolo[1,5-a]pyrimidin-2-yl]-2-(pyridin-2-yl)acetamide] | -1 | > 10000
18 | Cc1cc(C)n2nc(NC(=O)CCc3ccccc3)c(-c3cccc(F)c3)c2n1 [Example 85, N-[3-(3-fluorophenyl)-5,7-dimethylpyrazolo[1,5-a]pyrimidin-2-yl]-3-phenylpropanamide] | 131 | 500 to 1000
19 | CC(C)(C)c1c(NC(=O)CC2CCC3C2C3(Cl)Cl)nn2cccnc12 (stereo not drawn) [Example 169, N-(3-tert-butylpyrazolo[1,5-a]pyrimidin-2-yl)-2-[(cis)-6,6-dichlorobicyclo[3.1.0]hex-2-yl]acetamide] | 134 | 100 to 500
20 | Cc1cnc2c(-c3ccc(F)c(C)c3)c(NC(=O)C[S+]([O-])C3CCCC3)nn2c1 (stereo not shown) [Example 173, 2-(cyclopentylsulfinyl)-N-[3-(4-fluoro-3-methylphenyl)-6-methylpyrazolo[1,5-a]pyrimidin-2-yl]acetamide] | 21 | > 10000
21 | COc1ccc(CC(=O)Nc2nn3cc(C)cnc3c2-c2cccc(Cl)c2)cc1 [Example 50, N-[3-(3-chlorophenyl)-6-methylpyrazolo[1,5-a]pyrimidin-2-yl]-2-(4-methoxyphenyl)acetamide] | 100 | 1000 to 10000
22 | COc1cccc(CC(=O)Nc2nn3c(C)ccnc3c2CC(C)(C)C)c1 [Example 38, N-[3-(2,2-dimethylpropyl)-7-methylpyrazolo[1,5-a]pyrimidin-2-yl]-2-(3-methoxyphenyl)acetamide] | 163 | > 10000
23 | O=C(CC1CC2CCC1C2)Nc1nn2cccnc2c1-c1ccc(Cl)cc1 (racemic) [Example 158, (±)-exo-2-bicyclo[2.2.1]hept-2-yl-N-[3-(4-chlorophenyl)pyrazolo[1,5-a]pyrimidin-2-yl]acetamide] | 143 | 100 to 500
24 | Cc1cnc2c(-c3ccc(F)cc3)c(NC(=O)Cc3ccccc3)nn2c1 [Example 25, N-[3-(4-fluorophenyl)-6-methylpyrazolo[1,5-a]pyrimidin-2-yl]-2-phenylacetamide] | 171 | 100 to 500
25 | O=C(NCC1CCOCC1)Nc1nn2cccnc2c1-c1ccc(Cl)cc1 [Example 103, 1-[3-(4-chlorophenyl)pyrazolo[1,5-a]pyrimidin-2-yl]-3-(tetrahydro-2H-pyran-4-ylmethyl)urea] | 8 | > 10000
26 | Cc1cc(C)n2nc(NC(=O)CC3CCCCC3)c(-c3cccc(Cl)c3)c2n1 [Example 52, N-[3-(3-chlorophenyl)-5,7-dimethylpyrazolo[1,5-a]pyrimidin-2-yl]-2-cyclohexylacetamide] | 156 | 100 to 500
27 | Cc1cc(C)n2nc(NC(=O)CCC3CCCC3)c(-c3ccc(C(F)(F)F)cc3)c2n1 [Example 61, 3-cyclopentyl-N-{5,7-dimethyl-3-[4-(trifluoromethyl)phenyl]pyrazolo[1,5-a]pyrimidin-2-yl}propanamide] | 152 | 100 to 500
28 | Cc1cc(-c2c(NC(=O)Cc3ccc(F)cc3)nn3cccnc23)ccc1Cl [Example 45, N-[3-(4-chloro-3-methylphenyl)pyrazolo[1,5-a]pyrimidin-2-yl]-2-(4-fluorophenyl)acetamide] | 95 | > 10000
29 | Cc1cnc2c(-c3ccc(F)c(C)c3)c(NC(=O)CC34CC5CC(CC(C5)C3)C4)nn2c1 [Example 151, 2-(adamantan-1-yl)-N-[3-(4-fluoro-3-methylphenyl)-6-methylpyrazolo[1,5-a]pyrimidin-2-yl]acetamide] | 179 | < 100
30 | O=C(CC1CC2CCC1C2)Nc1nn2cccnc2c1-c1ccc(OC(F)(F)F)cc1 (racemic) [Example 124, (±)-exo-2-bicyclo[2.2.1]hept-2-yl-N-{3-[4-(trifluoromethoxy)phenyl]pyrazolo[1,5-a]pyrimidin-2-yl}acetamide] | 130 | 100 to 500
31 | CC(C)(C)c1c(NC(=O)CC2CCCCC2)nn2cccnc12 [Example 130, N-(3-tert-butylpyrazolo[1,5-a]pyrimidin-2-yl)-2-cyclohexylacetamide] | 131 | 100 to 500
32 | CC(C)(C)c1c(NC(=O)Cc2ccc(F)cc2)nn2cccnc12 [Example 123, N-(3-tert-butylpyrazolo[1,5-a]pyrimidin-2-yl)-2-(4-fluorophenyl)acetamide] | 142 | 100 to 500
